Experiments:
Type in all cases: in vivo
Matricaria inodora = assay: Herbicidal effect post-emergence, MATIN
Description: (§1) Seeds of mono- and dicotyledonous weed plants and crop plants are planted in wood-fiber pots in sandy loam, covered with earth and grown in a greenhouse under good growth conditions. 2 to 3 weeks after sowing, the test plants are treated in the single-leaf stage. The compounds according to the invention, formulated in the form of wettable powders (WP) or as emulsion concentrates (EC), are then sprayed onto the green plant parts as aqueous suspension or emulsion using an application rate of 600 to 800 l of water/ha (converted) with the addition of 0.2% by weight of wetting agent. After the test plants had been in the greenhouse for ca. 3 weeks under optimum growth conditions, the effect of the preparations is scored visually in comparison with untreated controls (herbicidal effect in percent (%): 100% effect=plants have died off, 0% effect=as control plants).

[1] = test system: Polygonum (Fallopia) convolvulus; assay: Herbicidal effect post-emergence, POLCO
Description: as §1

Abutilon theophrasti = assay: Herbicidal effect post-emergence, ABUTH
Description: as §1

Amaranthus retroflexus [2] = assay: Herbicidal effect post-emergence, AMARE
Description: as §1

Veronica persica [3] = assay: Herbicidal effect post-emergence, VERPE
Description: as §1

Viola tricolor [4] = assay: Herbicidal effect post-emergence, VIOTR
Description: as §1

Stellaria media = assay: Herbicidal effect post-emergence, STEME
Description: as §1

Amaranthus retroflexus [5] = assay: Herbicidal effect pre-emergence, AMARE; details: 320 g/hectare, visual grading after 3 weeks vs untreated controls
From the text: (§2) Seeds of mono- and dicotyledonous weed plants and crop plants are planted in wood-fiber pots in sandy loam and covered with earth. The compounds according to the invention, formulated in the form of wettable powders (WP) or as emulsion concentrates (EC), are then applied to the surface of the covering earth as aqueous suspension or emulsion at an application rate corresponding to 320 g/hectare at an application rate of 600 to 800 l of water/ha (converted) with the addition of 0.2% wetting agent.
(§3) Following treatment, the pots are placed in a greenhouse and kept under good growth conditions for the test plants. The visual grading of the damage to the test plants is carried out after a test time of 3 weeks in comparison to untreated controls (herbicidal effect in percent (%): 100% effect=plants have died off, 0% effect=as control plants).

Veronica persica [6] = assay: Herbicidal effect pre-emergence, VERPE; details: 320 g/hectare, visual grading after 3 weeks vs untreated controls
From the text: as §2, §3

Viola tricolor [7] = assay: Herbicidal effect pre-emergence, VIOTR; details: 320 g/hectare, visual grading after 3 weeks vs untreated controls
From the text: as §2, §3

Setaria viridis = assay: Herbicidal effect post-emergence, SETVI
Description: as §1

Echinochloa crus-galli = assay: Herbicidal effect post-emergence, ECHCG
Description: as §1

Row | Compound | Effect in % in respect of stated plant, MATIN (Matricaria inodora) | Effect in % in respect of stated plant, POLCO [1] | Effect in % in respect of stated plant, ABUTH (Abutilon theophrasti) | Effect in % in respect of stated plant, AMARE (Amaranthus retroflexus [2]) | Effect in % in respect of stated plant, VERPE (Veronica persica [3]) | Effect in % in respect of stated plant, VIOTR (Viola tricolor [4]) | Effect in % in respect of stated plant, STEME (Stellaria media) | Effect in % in respect of stated plant, AMARE (Amaranthus retroflexus [5]) | Effect in % in respect of stated plant, VERPE (Veronica persica [6]) | Effect in % in respect of stated plant, VIOTR (Viola tricolor [7]) | Effect in % in respect of stated plant, SETVI (Setaria viridis) | Effect in % in respect of stated plant, ECHCG (Echinochloa crus-galli)
1 | Cc1ccc(-c2nc(N)c(Cl)c(C(C#N)C#N)n2)cc1F.N [Compound 385] | 80% | 80% | 80% | 100% |  |  |  |  |  |  |  | 
2 | N#CC(C#N)c1nc(-c2ccc(Cl)cc2Cl)nc(N)c1Cl [compound 186] | 90% | 100% | 100% | 100% | 90% | 80% | 90% | 90% | 100% |  |  | 
3 | Cc1cc(-c2nc(N)c(Cl)c(C(C#N)C#N)n2)ccc1F [compound 205] |  |  |  |  |  |  |  |  | 100% | 100% |  | 
4 | N#CC(C#N)c1nc(-c2ccc(Cl)c(Cl)c2)nc(N)c1Cl [compound 104] | 90% | 80% | 80% | 90% | 90% | 80% |  |  |  |  | 80% | 80%
5 | N#CC(C#N)c1nc(-c2cc(F)c(Cl)c(F)c2)nc(N)c1Cl [compound 210] |  |  |  | 90% | 80% |  |  |  | 80% | 100% |  | 
6 | N.N#CC(C#N)c1nc(-c2ccc(Br)cc2F)nc(N)c1Cl [Compound 392] | 100% | 90% | 90% | 100% | 90% | 90% | 90% | 80% | 100% | 100% | 80% | 80%
7 | N#C[C-](C#N)c1nc(-c2ccc(Cl)c(Cl)c2)nc(N)c1Cl.[Na+] [Compound 340] | 90% | 90% | 80% | 90% | 90% |  |  |  |  |  |  | 
8 | N.N#CC(C#N)c1nc(-c2ccc(F)cc2F)nc(N)c1Cl [Compound 383] | 90% | 100% | 80% | 90% | 90% |  |  |  |  |  |  | 
9 | N#CC(C#N)c1nc(-c2ccc(F)cc2F)nc(N)c1Cl [compound 201] | 80% | 90% |  | 90% | 90% |  |  |  |  |  |  | 
10 | N#CC(C#N)c1nc(-c2ccc(C(F)(F)F)cc2)nc(N)c1Cl [compound 45] | 80% | 80% |  |  | 90% | 80% |  |  |  |  | 80% | 
11 | Cc1ccc(-c2nc(N)c(Cl)c(C(C#N)C#N)n2)cc1F [compound 204] | 80% | 80% | 90% | 90% | 80% |  |  |  |  |  |  | 80%
12 | N#CC(C#N)c1nc(-c2cc(F)ccc2N)nc(N)c1Cl [compound 203] |  |  |  |  |  |  |  | 100% | 90% |  |  | 
13 | N.N#CC(C#N)c1nc(-c2ccc(F)cc2)nc(N)c1Cl [Compound 300] | 80% |  |  | 80% | 80% |  |  |  |  |  |  | 
